From PubChem BioAssay (NCI)
Where “and” joins values, the source holds several entries; their conditions need not be identical. Equal values may be shown once.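 Protocol summary: plate cells (96-well), add compound at 5 concentrations, incubate 48 h, interpolate endpoints linearly. GI50 = concentration required for 50% inhibition of growth. TGI: concentration producing complete growth inhibition.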

Legend:
Assay in all cases: NCI tumour cell line growth inhibition, 48 h
SK-OV-3 ovarian = tested on: SK-OV-3 ovarian
TK-10 renal = tested on: TK-10 renal
NCI-H460 lung = tested on: NCI-H460 lung
MDA-MB-231 breast = tested on: MDA-MB-231 breast
UO-31 renal = tested on: UO-31 renal
PC-3 prostate = tested on: PC-3 prostate
LOX IMVI melanoma = tested on: LOX IMVI melanoma
M14 melanoma = tested on: M14 melanoma
ACHN renal = tested on: ACHN renal
MOLT-4 leukemia = tested on: MOLT-4 leukemia

SMILES | GI50 (SK-OV-3 ovarian) | TGI (SK-OV-3 ovarian) | GI50 (TK-10 renal) | TGI (TK-10 renal) | GI50 (NCI-H460 lung) | TGI (NCI-H460 lung) | GI50 (MDA-MB-231 breast) | TGI (MDA-MB-231 breast) | GI50 (UO-31 renal) | TGI (UO-31 renal) | GI50 (PC-3 prostate) | TGI (PC-3 prostate) | GI50 (LOX IMVI melanoma) | TGI (LOX IMVI melanoma) | GI50 (M14 melanoma) | TGI (M14 melanoma) | GI50 (ACHN renal) | TGI (ACHN renal) | GI50 (MOLT-4 leukemia) | TGI (MOLT-4 leukemia)
C=C1C(=O)O[C@H]2[C@H]1CC/C(Cn1cc(-c3cccc(Cl)c3)nn1)=C\CC[C@@]1(C)O[C@@H]21 | 3.67 µM | 11.2 µM | 0.992 µM | 2.15 µM | 2.13 µM | 4.52 µM | 1.09 µM | 2.91 µM | 1.08 µM | 2.31 µM | 1.98 µM | 3.77 µM | 0.285 µM | 0.898 µM | 0.798 µM | 2.2 µM | 0.184 µM | 0.355 µM | 0.31 µM | 1.25 µM
Cc1ccc(-c2nc(N3CCNCC3)c3oc(-c4ccccc4)nc3n2)cc1 | 15.7 µM | 29.5 µM | 1.68 µM | 3.09 µM | 1.83 µM | 3.52 µM | 1.62 µM | 3.06 µM | 1.43 µM | 2.78 µM | 1.7 µM | 3.19 µM | 1.88 µM | 3.43 µM | 1.78 µM | 3.31 µM | 1.75 µM | 3.12 µM | 1.91 µM | 3.67 µM
COc1cc(/C=C/C(=O)/C=C/c2cc3ccc(Cl)cc3n(Cc3ccccc3)c2=O)ccc1O | 5.95 µM | 57.1 µM | 2.44 µM | 5.5 µM | 1.89 µM | 4.27 µM | 2.93 µM | 16.6 µM | 1.34 µM | 2.64 µM | 1.92 µM | 5.6 µM | 1.29 µM | 2.61 µM | 1.83 µM | 4.67 µM | 1.33 µM | 2.62 µM | 1.89 µM | > 100 µM
COc1cccc(C2=C(c3cn(C)c4cc(F)ccc34)C(=O)NC2=O)c1 | > 25 µM | > 25 µM | > 16.9 µM | > 25 µM | > 18.6 µM | > 25 µM | > 25 µM | > 25 µM | 9.19 µM | > 25 µM | 12.5 µM | > 25 µM | 17.1 µM | > 25 µM | 24.6 µM | > 25 µM | 10.5 µM | > 25 µM | 11.1 µM | > 25 µM
COc1ccc2nc3cc([N+](=O)[O-])ccc3c(NNc3ccccc3)c2c1 | 14.9 µM | 35.3 µM and > 100 µM | 12.1 µM | 30 µM and > 100 µM |  | 25.2 µM and 42.3 µM | 5.69 µM | 30 µM and 54.2 µM | 13.1 µM | 34.3 µM and > 100 µM | 10.4 µM | 40.4 µM and > 100 µM | 14.5 µM | > 100 µM | 24.2 µM | 75.2 µM and > 100 µM | 14.4 µM | 33.1 µM and > 83.3 µM | 12.5 µM | 65.8 µM and 74.4 µM
NC(Cc1c[nH]c2ccc(F)cc12)C(=O)O (configuration not stated) | 451 µM | 1370 µM | > 2500 µM | > 2500 µM | 730 µM | > 2500 µM | 600 µM | 1670 µM | 444 µM | 1950 µM | 780 µM | > 2500 µM | 509 µM | 1860 µM | 643 µM | > 2500 µM | 738 µM | > 2500 µM | 1030 µM | > 2500 µM
CC(C)(C)NC(=O)[C@H]1CC[C@H]2[C@@H]3CC[C@H]4NC(=O)C=C[C@]4(C)[C@H]3CC[C@]12C | > 100 µM | > 100 µM | > 100 µM | > 100 µM | > 100 µM | > 100 µM | > 100 µM | > 100 µM | 71.1 µM and > 100 µM | > 100 µM | 61 µM and > 100 µM | > 100 µM | > 100 µM | > 100 µM | > 100 µM | > 100 µM | > 100 µM | > 100 µM | 66 µM and > 100 µM | > 100 µM
C[C@@H](NC(=O)c1ncnc(N)c1Cl)c1ncc(C(=O)Nc2cc(C(F)(F)F)c(Cl)cn2)s1 | 31.2 µM | > 93.5 µM | 19.6 µM | 46.6 µM | 20.4 µM | 79.9 µM | 5.37 µM | 41.5 µM | 8.98 µM | 44.4 µM | 25.3 µM | > 76.6 µM | 3.32 µM | 54 µM | 0.497 µM | 13.6 µM | 15.7 µM | > 100 µM | 23 µM | 68.7 µM
Cc1ccc(Cl)cc1NC(=O)c1cc2ccccc2cc1O | 0.406 µM | 2.95 µM | 0.948 µM | 4.46 µM | 0.376 µM | 2.28 µM | 0.377 µM | 2.06 µM | 0.201 µM | 1.47 µM | 0.289 µM |  | 0.213 µM | 1.49 µM | 0.325 µM | 1.21 µM | 0.351 µM | 2.8 µM | 0.558 µM | 3.42 µM
O=CNc1ccc(S(=O)(=O)c2ccc(NC=O)cc2)cc1 |  | > 100 µM |  | > 100 µM |  | > 100 µM |  | > 100 µM |  | > 100 µM |  | > 100 µM |  | > 100 µM |  | > 100 µM |  | > 100 µM |  | > 100 µM
C/C(=N\n1c(O)c(C#N)cc(C#N)c1=O)c1ccncc1 | > 100 µM | > 100 µM | > 100 µM | > 100 µM | > 100 µM | > 100 µM | > 100 µM | > 100 µM | > 100 µM | > 100 µM | > 100 µM | > 100 µM | > 100 µM | > 100 µM | > 100 µM | > 100 µM | > 100 µM | > 100 µM | > 100 µM | > 100 µM
OCc1ccc(N2CCc3cc(F)ccc3C2)cc1Cl | 3.85 µM | 15.9 µM |  | 0.0416 µM | 0.0583 µM | 1.84 µM | 12.9 µM | 26.2 µM | 1.7 µM | 18.4 µM | 11 µM | 27.6 µM | 9.7 µM | 24.5 µM | 16.2 µM | 30.7 µM | 11.8 µM | 24.4 µM | 15 µM | 47.4 µM
CN(C)C=NC1CCC(C(C)(C)C)CC1 (configuration not stated) |  | 44.8 µM |  | 38.6 µM |  | 35.1 µM |  | 26.7 µM |  | 30.8 µM |  | 30.3 µM |  | 29.7 µM |  | 33.6 µM |  | 43.8 µM |  | 32.2 µM
CCN(CC)CCC(CNc1ccnc2cc(Cl)ccc12)c1ccccc1 (configuration not stated) | 18.4 µM | 52.8 µM | 2.11 µM | 6.27 µM | 8.36 µM | 29 µM | 2.18 µM | 15.8 µM | 2.72 µM | 14.3 µM | 13.9 µM | 69.9 µM | 1.77 µM | 5.17 µM | 1.71 µM | 3.19 µM | 3.91 µM | 14.7 µM | 4.66 µM | 58.2 µM
COC1=C(OC)C(=O)C(Sc2ccc3ccccc3c2)=CC1=O |  | 31.7 µM |  | 27 µM |  | 43.4 µM |  | 32.9 µM |  | 16.3 µM |  | 26.1 µM |  | 30.6 µM |  | 21.8 µM |  | 23.6 µM |  | 4.86 µM
CCOC(=O)c1c(NC(=O)c2ccccc2)sc2c3c(ccc12)OCN(C)C3 | 2.16 µM | 4.79 µM | 1.81 µM | 3.54 µM | 1.87 µM | 3.53 µM | 1.85 µM | 3.52 µM | 1.36 µM | 2.74 µM | 1.53 µM | 3 µM | 1.62 µM | 3.03 µM | 1.74 µM | 3.29 µM | 1.58 µM | 2.98 µM | 2.09 µM | 5.19 µM
Nc1nnnc2nc[nH]c12 | 0.327 µM | 6.22 µM | 0.5 µM | > 41.5 µM | 2.46 µM | > 100 µM | 0.597 µM | > 100 µM | 0.523 µM | > 100 µM | 2.42 µM | > 100 µM | 0.455 µM | > 25.8 µM | 0.568 µM | 4.02 µM | 1.08 µM | > 100 µM | 2.62 µM | > 100 µM
